For 5 compounds, IC50, EC50 and AC50 results are on record in ChEMBL document CHEMBL1201862, “PubChem BioAssay data set” (2004).

For orientation: IC50 means the point on the concentration scale where inhibition reaches its midpoint. One may read the EC50 as the midpoint of the concentration-response curve. One may read the AC50 as the concentration giving half of the maximal activity seen.

Activity calls are given as the source filed them.

Assay [1] addresses T1, Bcl-2-related protein A1 (Mus musculus, UniProt Q07440).
T1 sequence (Q07440 whole entry): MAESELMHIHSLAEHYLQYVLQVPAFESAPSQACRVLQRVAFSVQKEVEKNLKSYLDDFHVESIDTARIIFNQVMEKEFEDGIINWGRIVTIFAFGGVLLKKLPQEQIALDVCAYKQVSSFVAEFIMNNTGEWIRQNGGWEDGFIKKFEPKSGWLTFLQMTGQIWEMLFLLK
It is filed as functional.

For assay [2], the target named is T2, Ubiquitin-conjugating enzyme E2 N (Homo sapiens, UniProt P61088).
T2 sequence (P61088 whole entry): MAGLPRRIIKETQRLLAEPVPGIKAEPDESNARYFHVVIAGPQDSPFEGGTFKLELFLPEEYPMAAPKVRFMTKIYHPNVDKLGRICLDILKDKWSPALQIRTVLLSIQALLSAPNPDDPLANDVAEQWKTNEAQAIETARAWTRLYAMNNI
It is filed as functional.

The target of assay [3] is T2, Ubiquitin-conjugating enzyme E2 N. It is filed as functional. This is another data set of the same source.
In assay [4] the target is Intestinal-type alkaline phosphatase (Homo sapiens, UniProt P09923). Description: activation of human intestinal alkaline phosphatase – biochemical, dose response (AID 488873). It is filed as functional.
Intestinal-type alkaline phosphatase (Homo sapiens, UniProt P09923), sequence (P09923 whole entry): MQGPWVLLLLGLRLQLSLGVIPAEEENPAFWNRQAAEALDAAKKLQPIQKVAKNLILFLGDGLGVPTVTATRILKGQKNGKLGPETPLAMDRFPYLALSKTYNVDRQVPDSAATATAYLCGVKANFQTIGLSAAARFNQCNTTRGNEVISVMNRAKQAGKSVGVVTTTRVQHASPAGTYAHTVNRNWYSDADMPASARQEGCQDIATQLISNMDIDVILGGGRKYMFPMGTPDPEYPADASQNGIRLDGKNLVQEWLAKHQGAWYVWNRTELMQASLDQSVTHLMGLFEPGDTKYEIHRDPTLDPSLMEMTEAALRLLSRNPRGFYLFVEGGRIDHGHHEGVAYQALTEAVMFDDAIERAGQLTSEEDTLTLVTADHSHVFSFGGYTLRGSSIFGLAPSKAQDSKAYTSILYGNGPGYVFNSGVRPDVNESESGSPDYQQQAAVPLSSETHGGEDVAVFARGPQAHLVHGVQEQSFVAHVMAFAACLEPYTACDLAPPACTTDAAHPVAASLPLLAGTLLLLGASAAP
The target in assay [5] is Intestinal-type alkaline phosphatase (Mus musculus, UniProt P24822). Briefly: mouse intestinal alkaline phosphatase activators, dose response, biochemical, luminescence, uHTS hits (AID 488783). It is filed as functional.
Intestinal-type alkaline phosphatase (Mus musculus, UniProt P24822), sequence (P24822 whole entry): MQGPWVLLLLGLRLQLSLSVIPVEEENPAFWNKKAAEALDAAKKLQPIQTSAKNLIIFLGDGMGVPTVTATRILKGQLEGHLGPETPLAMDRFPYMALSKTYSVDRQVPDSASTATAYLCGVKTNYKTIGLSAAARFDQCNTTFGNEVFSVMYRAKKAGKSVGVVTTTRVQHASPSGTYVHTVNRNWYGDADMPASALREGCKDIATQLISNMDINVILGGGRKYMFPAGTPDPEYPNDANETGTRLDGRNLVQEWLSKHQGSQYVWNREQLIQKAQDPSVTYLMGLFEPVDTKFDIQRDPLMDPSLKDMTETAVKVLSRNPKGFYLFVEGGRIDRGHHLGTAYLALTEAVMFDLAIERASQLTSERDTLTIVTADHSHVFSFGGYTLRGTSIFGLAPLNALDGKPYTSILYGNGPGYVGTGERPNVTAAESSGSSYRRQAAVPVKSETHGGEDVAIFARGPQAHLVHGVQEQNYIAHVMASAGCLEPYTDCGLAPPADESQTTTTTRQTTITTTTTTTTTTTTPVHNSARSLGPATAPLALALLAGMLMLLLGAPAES
Assay [6] has as its target T3, Caspase-6 (Homo sapiens, UniProt P55212).
T3 sequence (P55212 whole entry): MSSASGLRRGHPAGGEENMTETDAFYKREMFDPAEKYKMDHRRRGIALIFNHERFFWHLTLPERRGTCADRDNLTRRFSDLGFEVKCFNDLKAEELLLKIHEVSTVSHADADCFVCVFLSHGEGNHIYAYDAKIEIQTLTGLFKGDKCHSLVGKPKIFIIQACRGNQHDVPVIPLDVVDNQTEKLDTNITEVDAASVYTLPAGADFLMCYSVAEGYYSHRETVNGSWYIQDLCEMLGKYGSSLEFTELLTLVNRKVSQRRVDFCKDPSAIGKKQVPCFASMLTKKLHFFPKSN
Briefly: inhibition of CASP6 peptide cleavage – biochemical, VEID-R110 fluorescence, cherry-pick, dose response (AID 720632).

Assay [7] addresses T4, Alkaline phosphatase, tissue-nonspecific isozyme (Homo sapiens, UniProt P05186).
T4 sequence (P05186 whole entry): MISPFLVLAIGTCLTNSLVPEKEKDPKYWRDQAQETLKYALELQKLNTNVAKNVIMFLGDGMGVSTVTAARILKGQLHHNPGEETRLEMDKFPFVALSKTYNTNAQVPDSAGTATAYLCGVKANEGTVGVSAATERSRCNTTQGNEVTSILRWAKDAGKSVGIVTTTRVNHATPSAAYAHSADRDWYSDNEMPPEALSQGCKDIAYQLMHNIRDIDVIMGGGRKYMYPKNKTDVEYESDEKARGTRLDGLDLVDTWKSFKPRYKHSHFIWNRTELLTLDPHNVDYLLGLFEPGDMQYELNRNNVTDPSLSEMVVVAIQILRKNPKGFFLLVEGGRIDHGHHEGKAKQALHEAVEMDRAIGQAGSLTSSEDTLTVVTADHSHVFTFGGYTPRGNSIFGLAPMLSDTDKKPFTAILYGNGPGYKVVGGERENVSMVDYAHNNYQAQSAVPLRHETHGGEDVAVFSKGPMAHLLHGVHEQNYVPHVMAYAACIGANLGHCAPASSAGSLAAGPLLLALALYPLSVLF
Briefly: activation of tissue-nonspecific alkaline phosphatase – biochemical, TNAP isozyme, mouse IAP uHTS hits, selectivity assay for mouse IAP activator project, dose response (AID 488880). It is filed as functional.

In assay [8] the target is T5, Replicative DNA helicase DnaB (Mycobacterium tuberculosis, UniProt P9WMR3).
T5 sequence (P9WMR3 whole entry): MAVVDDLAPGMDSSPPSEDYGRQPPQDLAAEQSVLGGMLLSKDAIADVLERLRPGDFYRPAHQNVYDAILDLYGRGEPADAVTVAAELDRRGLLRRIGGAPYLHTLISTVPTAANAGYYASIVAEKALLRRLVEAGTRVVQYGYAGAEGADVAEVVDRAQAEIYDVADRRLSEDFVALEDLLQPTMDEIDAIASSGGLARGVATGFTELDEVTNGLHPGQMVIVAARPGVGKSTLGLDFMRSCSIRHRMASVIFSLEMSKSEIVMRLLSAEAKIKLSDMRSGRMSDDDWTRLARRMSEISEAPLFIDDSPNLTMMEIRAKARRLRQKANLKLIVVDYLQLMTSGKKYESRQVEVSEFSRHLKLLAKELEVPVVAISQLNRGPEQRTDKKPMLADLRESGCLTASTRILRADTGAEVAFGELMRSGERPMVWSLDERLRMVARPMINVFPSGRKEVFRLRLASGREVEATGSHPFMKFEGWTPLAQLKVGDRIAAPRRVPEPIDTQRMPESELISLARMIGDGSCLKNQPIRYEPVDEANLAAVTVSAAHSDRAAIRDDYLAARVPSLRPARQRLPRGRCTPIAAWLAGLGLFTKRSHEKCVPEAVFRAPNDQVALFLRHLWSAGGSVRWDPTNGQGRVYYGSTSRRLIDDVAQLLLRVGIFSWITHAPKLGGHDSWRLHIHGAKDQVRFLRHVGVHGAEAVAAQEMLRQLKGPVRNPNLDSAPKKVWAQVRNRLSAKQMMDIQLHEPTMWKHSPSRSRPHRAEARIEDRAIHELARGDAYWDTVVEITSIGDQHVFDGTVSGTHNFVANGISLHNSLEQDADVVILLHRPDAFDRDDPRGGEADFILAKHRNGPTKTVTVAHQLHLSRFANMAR
Description: DnaB intein splicing inhibitors, dose response, biochemical, cell-free fluorescence (AID 449749). It is filed as functional.

Assay [9] in a line: Counterscreen for antagonists of the orexin 1 receptor (OX1R; HCRTR1): Fluorescence-based cell-based high throughput dose response assay to identify antagonists of the parental CHO cell line. [Related pubchem assays (depositor defined):AID434989, AID435008, AID463079, AID485270, AID492963, AID492964, AID492965, AID493232, AID504699, AID504701]. It is filed as functional. In general terms: A counterscreen serves to expose hits that act by an unwanted route or on another target.

Assay [10] concerns the target T6, Orexin/Hypocretin receptor type 1 (Homo sapiens, UniProt O43613). Briefly: Fluorescence-based cell-based high throughput dose response assay for antagonists of the orexin 1 receptor (OX1R; HCRTR1). [Related pubchem assays (depositor defined):AID434989, AID435008, AID463079, AID485270, AID492963, AID492964, AID492965, AID493232, AID504717, AID504718]. It is filed as functional.

For assay [11], the system named is CHO-K1. Description: Counterscreen for antagonists of the orexin 1 receptor (OX1R; HCRTR1): Homogeneous time resolved fluorescence (HTRF)-based cell-based dose response assay to identify antagonists of the parental CHO-K1 cell line. [Related pubchem assays (depositor defined):AID434989, AID435008, AID463079, AID485270, AID492963, AID492964, AID492965, AID493232, AID504699, AID504701]. It is filed as functional. The following applies: Cricetulus griseus.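 Also: potency for inhibition of ATP-stimulated IP1 production as antagonists.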

Assay [12] concerns the target T6, Orexin/Hypocretin receptor type 1. Description: Homogeneous Time Resolved Fluorescence (HTRF)-based cell-based high throughput dose response assay for antagonists of the orexin 1 receptor (OX1R; HCRTR1). [Related pubchem assays (depositor defined):AID434989, AID435008, AID463079, AID485270, AID492963, AID492964, AID492965, AID493232, AID504717, AID504718]. It is filed as functional. Background: In TR-FRET formats the signal depends on donor and acceptor labels being close together.

Assay [13] has as its target T7, Protein RecA (Mycobacterium tuberculosis, UniProt P9WHJ3).
T7 sequence (P9WHJ3 whole entry): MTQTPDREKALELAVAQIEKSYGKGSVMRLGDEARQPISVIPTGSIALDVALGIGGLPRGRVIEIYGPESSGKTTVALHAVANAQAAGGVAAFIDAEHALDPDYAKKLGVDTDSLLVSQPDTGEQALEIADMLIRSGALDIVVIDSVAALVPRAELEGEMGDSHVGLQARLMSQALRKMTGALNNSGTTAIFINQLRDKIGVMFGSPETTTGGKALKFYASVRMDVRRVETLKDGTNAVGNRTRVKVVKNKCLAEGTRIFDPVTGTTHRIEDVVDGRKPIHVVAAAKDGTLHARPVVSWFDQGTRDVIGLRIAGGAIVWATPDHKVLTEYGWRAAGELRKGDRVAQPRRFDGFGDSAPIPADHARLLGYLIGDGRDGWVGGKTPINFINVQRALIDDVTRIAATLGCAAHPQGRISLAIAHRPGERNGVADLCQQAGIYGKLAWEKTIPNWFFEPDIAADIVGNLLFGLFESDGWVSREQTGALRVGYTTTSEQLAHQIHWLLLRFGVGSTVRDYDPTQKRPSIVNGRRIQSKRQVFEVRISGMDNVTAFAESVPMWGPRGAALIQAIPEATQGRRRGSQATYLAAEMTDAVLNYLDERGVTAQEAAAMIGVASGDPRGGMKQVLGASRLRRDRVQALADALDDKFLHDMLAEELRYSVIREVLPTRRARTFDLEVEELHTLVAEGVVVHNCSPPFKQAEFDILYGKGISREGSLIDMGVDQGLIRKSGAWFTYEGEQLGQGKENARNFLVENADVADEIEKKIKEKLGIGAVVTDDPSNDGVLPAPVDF
Description: Fluorescence Cell-Free Homogeneous Dose Retest to Identify Inhibitors of RecA-Intein Splicing Activity. [Related pubchem assays (depositor defined):AID2097, AID2223, AID489010, AID492950]. It is filed as functional.

Assay [14] addresses Peroxisome proliferator-activated receptor alpha (Homo sapiens, UniProt Q07869). Description: Late stage assay provider counterscreen for partial agonists of the peroxisome proliferator-activated receptor gamma (PPARg): Luminescence-based cell-based dose response assay for partial agonists of the peroxisome proliferator-activated receptor alpha (PPARA). [Related pubchem assays (depositor defined):AID1051, AID1300, AID1319, AID1679, AID1808, AID504446, AID504447, AID504452, AID504453, AID631]. It is filed as functional.

Assay [15] concerns the target T8, Peroxisome proliferator-activated receptor gamma (Homo sapiens, UniProt P37231).
T8 sequence (P37231 whole entry): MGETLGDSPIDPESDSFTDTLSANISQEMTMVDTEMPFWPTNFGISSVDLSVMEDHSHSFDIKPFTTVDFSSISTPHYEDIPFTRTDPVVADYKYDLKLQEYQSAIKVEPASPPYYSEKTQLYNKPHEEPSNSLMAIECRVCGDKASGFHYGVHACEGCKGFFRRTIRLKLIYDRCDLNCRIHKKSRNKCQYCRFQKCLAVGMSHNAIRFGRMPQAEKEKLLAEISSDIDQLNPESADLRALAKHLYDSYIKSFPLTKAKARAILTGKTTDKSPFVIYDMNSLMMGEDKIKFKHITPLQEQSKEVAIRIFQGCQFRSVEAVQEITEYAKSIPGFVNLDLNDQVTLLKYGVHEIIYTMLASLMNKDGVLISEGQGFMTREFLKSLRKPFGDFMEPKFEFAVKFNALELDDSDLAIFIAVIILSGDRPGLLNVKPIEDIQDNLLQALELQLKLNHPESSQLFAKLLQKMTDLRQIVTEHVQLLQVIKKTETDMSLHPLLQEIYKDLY
Description: competitive ligand displacement at PPARg – biochemical, TR-FRET, LanthaScreen, PPARg partial agonist project, dose response (AID 504446).

In assay [16] the target is T8, Peroxisome proliferator-activated receptor gamma. Briefly: PPARg transcriptional activation, reporter cells – cell-based, luminescence, assay provider, dose response (AID 504447). It is filed as functional.
The target in assay [17] is Signal transducer and activator of transcription 3 (Homo sapiens, UniProt P40763). Description: STAT3 blockade with qPCR and toxicity readouts – cell-based, STAT1 panel, cytotoxicity, late-stage follow-up, panel member STAT3 Inhibition (AID 2078). (Quantitative PCR measures a nucleic acid by following its amplification.)
Signal transducer and activator of transcription 3, sequence (P40763 whole entry): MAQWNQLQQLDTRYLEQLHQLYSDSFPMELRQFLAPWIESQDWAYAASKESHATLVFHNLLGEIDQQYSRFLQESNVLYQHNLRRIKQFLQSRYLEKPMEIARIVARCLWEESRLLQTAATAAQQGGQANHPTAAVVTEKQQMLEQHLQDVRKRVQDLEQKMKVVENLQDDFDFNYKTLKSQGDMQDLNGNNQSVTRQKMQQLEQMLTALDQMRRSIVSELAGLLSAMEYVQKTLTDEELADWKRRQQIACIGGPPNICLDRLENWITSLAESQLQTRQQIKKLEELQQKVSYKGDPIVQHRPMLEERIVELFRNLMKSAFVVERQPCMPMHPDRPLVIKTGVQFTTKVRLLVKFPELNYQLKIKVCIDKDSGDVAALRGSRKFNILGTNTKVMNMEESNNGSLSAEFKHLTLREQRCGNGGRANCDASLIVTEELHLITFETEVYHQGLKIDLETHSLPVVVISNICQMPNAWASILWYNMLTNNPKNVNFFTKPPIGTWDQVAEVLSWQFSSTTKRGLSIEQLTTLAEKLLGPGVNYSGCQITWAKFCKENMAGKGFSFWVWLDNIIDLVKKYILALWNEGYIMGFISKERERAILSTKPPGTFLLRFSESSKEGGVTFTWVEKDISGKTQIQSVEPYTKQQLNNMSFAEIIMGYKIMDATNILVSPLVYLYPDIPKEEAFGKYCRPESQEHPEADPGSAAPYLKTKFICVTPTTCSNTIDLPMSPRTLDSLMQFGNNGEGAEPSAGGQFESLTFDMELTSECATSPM
For assay [18], the target named is Signal transducer and activator of transcription 1-alpha/beta (Homo sapiens, UniProt P42224). Description: STAT3 blockade with qPCR and toxicity readouts – cell-based, STAT1 panel, cytotoxicity, late-stage follow-up, panel member STAT1 Inhibition (AID 2078).
Signal transducer and activator of transcription 1-alpha/beta, sequence (P42224 whole entry): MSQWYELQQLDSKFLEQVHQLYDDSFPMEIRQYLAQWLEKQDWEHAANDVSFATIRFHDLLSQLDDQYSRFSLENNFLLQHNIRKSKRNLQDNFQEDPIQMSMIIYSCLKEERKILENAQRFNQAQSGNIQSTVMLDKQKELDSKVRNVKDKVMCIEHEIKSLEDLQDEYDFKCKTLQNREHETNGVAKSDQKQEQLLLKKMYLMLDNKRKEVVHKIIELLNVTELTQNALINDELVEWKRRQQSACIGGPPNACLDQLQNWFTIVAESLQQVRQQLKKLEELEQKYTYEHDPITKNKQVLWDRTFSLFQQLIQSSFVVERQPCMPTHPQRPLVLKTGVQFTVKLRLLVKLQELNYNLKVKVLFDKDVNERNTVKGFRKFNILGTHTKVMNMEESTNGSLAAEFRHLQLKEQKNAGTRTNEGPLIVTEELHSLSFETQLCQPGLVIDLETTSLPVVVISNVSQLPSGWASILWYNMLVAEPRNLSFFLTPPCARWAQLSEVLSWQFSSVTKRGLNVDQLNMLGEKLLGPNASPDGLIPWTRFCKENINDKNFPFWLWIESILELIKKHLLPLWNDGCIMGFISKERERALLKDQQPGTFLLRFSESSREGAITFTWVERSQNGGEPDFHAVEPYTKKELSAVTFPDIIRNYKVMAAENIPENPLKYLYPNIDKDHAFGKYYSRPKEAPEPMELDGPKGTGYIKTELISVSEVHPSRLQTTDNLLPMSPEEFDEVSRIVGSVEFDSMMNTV

T6 sequence (O43613 whole entry): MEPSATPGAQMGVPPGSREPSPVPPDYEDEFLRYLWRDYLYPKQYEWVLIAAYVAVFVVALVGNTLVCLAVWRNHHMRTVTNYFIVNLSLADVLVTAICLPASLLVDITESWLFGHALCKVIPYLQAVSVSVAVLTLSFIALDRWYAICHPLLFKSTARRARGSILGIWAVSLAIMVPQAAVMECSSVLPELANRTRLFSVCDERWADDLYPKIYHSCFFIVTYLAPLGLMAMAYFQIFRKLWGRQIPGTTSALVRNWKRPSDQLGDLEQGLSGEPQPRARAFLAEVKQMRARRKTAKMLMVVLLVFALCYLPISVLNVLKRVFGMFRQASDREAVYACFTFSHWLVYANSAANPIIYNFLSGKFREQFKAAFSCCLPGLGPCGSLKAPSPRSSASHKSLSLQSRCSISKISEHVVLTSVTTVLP
Peroxisome proliferator-activated receptor alpha, sequence (Q07869 whole entry): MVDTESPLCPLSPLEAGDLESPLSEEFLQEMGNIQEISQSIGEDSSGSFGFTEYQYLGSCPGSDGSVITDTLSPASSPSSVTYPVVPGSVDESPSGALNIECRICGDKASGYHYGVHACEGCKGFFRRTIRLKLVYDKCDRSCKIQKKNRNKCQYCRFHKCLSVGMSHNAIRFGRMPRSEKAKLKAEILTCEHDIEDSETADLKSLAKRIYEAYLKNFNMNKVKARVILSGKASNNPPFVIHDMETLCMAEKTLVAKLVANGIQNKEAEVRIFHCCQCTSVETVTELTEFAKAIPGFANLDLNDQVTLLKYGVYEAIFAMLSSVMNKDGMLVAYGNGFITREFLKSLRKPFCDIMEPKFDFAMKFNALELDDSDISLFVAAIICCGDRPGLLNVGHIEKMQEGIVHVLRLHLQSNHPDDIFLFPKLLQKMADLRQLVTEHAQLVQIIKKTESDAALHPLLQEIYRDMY

With `CCOC(=O)c1nn(-c2ccccc2)c(=O)cc1OCC(=O)Nc1ccccc1OCC`, the IC50 was > 20 µM (inactive) in assay [1], 14.9 µM (active) in assay [2] and > 20 µM (inactive) in assay [3].

For the compound `O=C(COC(=O)c1ccc(Br)o1)Nc1ncc([N+](=O)[O-])s1`, the EC50 in [4] was 68.4 µM (active); in assay [5], 39.9 µM (active); in assay [7], 85.8 µM (active). For the same compound, the concentration at half-maximal activity (AC50) in assay [6] is 8.5 µM (active).

For `COc1ccc(S(=O)(=O)Nc2c(O)ccc3ccccc23)cc1OC`, in assay [8], the AC50 was 5.46 µM (active). The IC50 in assay [9] is > 49.8 µM (inactive); in [10], > 16.6 µM (inactive); in assay [11], 27 µM (inactive); in assay [12], 3.15 µM (active). For the same compound, in assay [13], the EC50 was 2.85 µM (active).

With `CCCCOC(=O)CCN1C(=O)/C(=C/c2ccccc2)SC1=S`, the EC50 is 0.12 µM (active) in assay [14] and 3.2 µM (active) in assay [16]. Further, the IC50 in assay [15] is 3.2 µM (active).

Take `O=C(c1ccc(F)cc1)C1CCN(c2ncnc3sccc23)CC1`: the IC50 in assay [17] is 1.68 µM (active); in assay [18] it was > 55.7 µM (inactive).
